In the supplement of paper PMC10307832:

Key:
Assay in all cases: relative viability (nuclei count vs DMSO), 5 days (fraction); higher = more cells survive
[1] = compound: C1=CC2=NC=CN=C2C=C1/C=C/3\C(=O)NC(=O)S3 + C[C@]1(O)C[C@@H](c2nc(-c3ccc4ccc(-c5ccccc5)nc4c3)c3c(N)nccn32)C1 [Linsitinib] (partner 1 µM)
Procedure, shortened: (§1)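 Lung cancer cell lines in 1536-well plates were dosed by pin tool the day after seeding, either with one drug alone or with a fixed anchor-drug dose plus five library-drug doses (not always all listed) in √10 steps. After 5 days, cells were fixed and their nuclei stained in one step (final 0.05% Triton X-100, 1% formaldehyde, 1 ug/ml Hoechst), then counted on 4× images. Relative viability is the nuclei count in treated wells divided by that in vehicle wells. Values are medians of duplicate plates.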

BGJ398 + Crizotinib = compound: CCN1CCN(c2ccc(Nc3cc(N(C)C(=O)Nc4c(Cl)c(OC)cc(OC)c4Cl)ncn3)cc2)CC1 [BGJ398] + C[C@@H](Oc1cc(-c2cnn(C3CCNCC3)c2)cnc1N)c1c(Cl)ccc(F)c1Cl [Crizotinib] (partner 1 µM)
Procedure, shortened: as §1

[2] = compound: C1=CC2=NC=CN=C2C=C1/C=C/3\C(=O)NC(=O)S3 + O=C(c1cc(Cc2n[nH]c(=O)c3ccccc23)ccc1F)N1CCN(C(=O)C2CC2)CC1 [Olaparib] (partner 8 µM)
Procedure, shortened: as §1

[3] = compound: C1=CC2=NC=CN=C2C=C1/C=C/3\C(=O)NC(=O)S3 + CC(=O)c1c(C)c2cnc(Nc3ccc(N4CCNCC4)cn3)nc2n(C2CCCC2)c1=O [Palbociclib] (partner 0.5 µM)
Procedure, shortened: as §1

Cell Line: UMC-11
- relative viability ([1]; first compound 0.02 µM): 1.02
- relative viability ([1]; first compound 0.06325 µM): 1.12
- relative viability ([1]; first compound 0.2 µM): 1.05
- relative viability ([1]; first compound 0.6325 µM): 0.989
- relative viability ([1]; first compound 2 µM): 1.11
- relative viability (BGJ398 + Crizotinib; first compound 0.01 µM): 0.507
- relative viability (BGJ398 + Crizotinib; first compound 0.03162 µM): 0.585
- relative viability (BGJ398 + Crizotinib; first compound 0.1 µM): 0.539
- relative viability (BGJ398 + Crizotinib; first compound 0.3162 µM): 0.579
- relative viability (BGJ398 + Crizotinib; first compound 1 µM): 0.53
- relative viability ([2]; first compound 0.02 µM): 0.336
- relative viability ([2]; first compound 0.06325 µM): 0.423
- relative viability ([2]; first compound 0.2 µM): 0.391
- relative viability ([2]; first compound 0.6325 µM): 0.336
- relative viability ([2]; first compound 2 µM): 0.379
- relative viability ([3]; first compound 0.02 µM): 0.341
- relative viability ([3]; first compound 0.06325 µM): 0.328
- relative viability ([3]; first compound 0.2 µM): 0.33
- relative viability ([3]; first compound 0.6325 µM): 0.328
- relative viability ([3]; first compound 2 µM): 0.414
